Experimental data taken from publication PMC11316643 (European journal of medicinal chemistry, 2024).
Read-outs that look alike come from different tables or passages of the source. Blank lines part the entries; values can stand above or below the compound they belong to.

Experiments:
human KOR = human KOR (Homo sapiens, UniProt P41145); test: Bias analysis by operational model
[1] = target: human kappa opioid receptor (KOR) (Homo sapiens, UniProt P41145); test: 35S-GTPγS binding assay of KOR G protein activation in CHO-hKOR membranes; assay type: biochemical
Chain of human kappa opioid receptor (KOR) (P41145 whole entry): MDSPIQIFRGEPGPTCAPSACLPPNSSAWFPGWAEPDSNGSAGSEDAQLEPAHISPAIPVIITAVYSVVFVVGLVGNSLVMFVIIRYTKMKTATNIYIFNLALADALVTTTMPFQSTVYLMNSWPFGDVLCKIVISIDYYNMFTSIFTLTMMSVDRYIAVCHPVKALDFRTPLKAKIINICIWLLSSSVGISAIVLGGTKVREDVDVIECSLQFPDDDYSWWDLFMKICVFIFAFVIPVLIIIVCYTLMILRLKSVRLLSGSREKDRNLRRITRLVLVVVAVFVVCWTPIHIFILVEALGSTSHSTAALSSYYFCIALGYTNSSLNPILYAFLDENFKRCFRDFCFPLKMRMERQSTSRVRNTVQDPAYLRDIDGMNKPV

Chain of human KOR (P41145 whole entry): as above
Chain of human KOR (P32121 whole entry partner): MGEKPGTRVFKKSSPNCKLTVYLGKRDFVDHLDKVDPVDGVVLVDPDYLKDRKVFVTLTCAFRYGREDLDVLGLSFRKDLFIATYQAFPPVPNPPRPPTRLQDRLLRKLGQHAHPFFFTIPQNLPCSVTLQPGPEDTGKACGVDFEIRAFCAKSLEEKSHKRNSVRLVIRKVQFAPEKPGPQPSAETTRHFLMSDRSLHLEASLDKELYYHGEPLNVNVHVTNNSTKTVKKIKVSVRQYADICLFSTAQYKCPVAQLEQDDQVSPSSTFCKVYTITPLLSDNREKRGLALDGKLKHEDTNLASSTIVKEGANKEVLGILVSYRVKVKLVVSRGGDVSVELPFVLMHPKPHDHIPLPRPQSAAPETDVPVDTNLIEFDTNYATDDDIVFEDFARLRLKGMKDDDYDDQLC

Compound: Cc1ccc(CCc2nnc(-c3ccccn3)n2Cc2cccs2)cc1C(F)(F)F [2d, 2-(5-(4-Methyl-3-(trifluoromethyl)phenethyl)-4-(thiophen-2-ylmethyl)-4H-1,2,4-triazol-3-yl)pyridine]
bias (bias factor, G protein over βarrestin2) (human KOR): 38

Compound: Cc1ccc(CCc2nnc(-c3ccccn3)n2-c2ccccc2)cc1C(F)(F)F [2g, 2-(5-(4-Methyl-3-(trifluoromethyl)phenethyl)-4-phenyl-4H-1,2,4-triazol-3-yl)pyridine]
KOR agonist activity (GTPγS) in words [1]: inactive

KOR agonist activity (GTPγS) in words ([1]; SAR discussion): inactive
Compound: Cc1ccc(CCc2nnc(-c3ccccn3)n2Cc2ccncc2)cc1C(F)(F)F [2j, 2-(5-(4-Methyl-3-(trifluoromethyl)phenethyl)-4-(pyridin-4-ylmethyl)-4H-1,2,4-triazol-3-yl)pyridine]

Compound: Cc1ccc(CCc2nnc(-c3ccccn3)n2CC2CC2)cc1C(F)(F)F [2k, 2-(4-(Cyclopropylmethyl)-5-(4-methyl-3-(trifluoromethyl)phenethyl)-4H-1,2,4-triazol-3-yl)pyridine]
fold decrease in potency on cyclopropane substitution [1]: 10 fold

Compound: Cc1ccc(CCc2nnc(-c3ccccc3)n2Cc2cccs2)cc1C(F)(F)F [3a, 3-(4-Methyl-3-(trifluoromethyl)phenethyl)-5-phenyl-4-(thiophen-2-ylmethyl)-4H-1,2,4-triazole]
KOR agonist activity (GTPγS) in words [1]: significant loss of activity

Compound: Cc1ccc(CCc2nnc(-c3cccnc3)n2Cc2cccs2)cc1C(F)(F)F [3b, 3-(5-(4-Methyl-3-(trifluoromethyl)phenethyl)-4-(thiophen-2-ylmethyl)-4H-1,2,4-triazol-3-yl)pyridine]
KOR agonist activity (GTPγS) in words [1]: significant loss of activity

KOR agonist activity (GTPγS) in words ([1]; SAR discussion): significant loss of activity
Compound: Cc1ccc(CCc2nnc(-c3ccncc3)n2Cc2cccs2)cc1C(F)(F)F [3c, 4-(5-(4-Methyl-3-(trifluoromethyl)phenethyl)-4-(thiophen-2-ylmethyl)-4H-1,2,4-triazol-3-yl)pyridine]

Compound: Brc1ccccc1CCc1nnc(-c2ccccn2)n1Cc1cccs1 [4g, 2-(5-(2-Bromophenethyl)-4-(thiophen-2-ylmethyl)-4H-1,2,4-triazol-3-yl)pyridine]
fold decrease in potency of ortho bromo vs para-bromo (4e) [1]: ca. 10 fold

KOR agonist activity (GTPγS) in words ([1]; SAR discussion): detrimental to activity
Compound: c1ccc(-c2nnc(C3CCc4ccccc4C3)n2Cc2cccs2)nc1 (centres unmarked) [5a, 2-(5-(1,2,3,4-Tetrahydronaphthalen-2-yl)-4-(thiophen-2-ylmethyl)-4H-1,2,4-triazol-3-yl)pyridine]

KOR agonist activity (GTPγS) in words ([1]; SAR discussion): dramatic loss in potency
Compound: C(#Cc1nnc(-c2ccccn2)n1Cc1ccco1)c1ccccc1 [5b, 2-(4-(Furan-2-ylmethyl)-5-(phenylethynyl)-4H-1,2,4-triazol-3-yl)pyridine]

Compound: C(=C/c1nnc(-c2ccccn2)n1Cc1ccco1)/c1ccccc1 [5c, (Z)-2-(4-(Furan-2-ylmethyl)-5-styryl-4H-1,2,4-triazol-3-yl)pyridine]
KOR agonist activity (GTPγS) in words [1]: dramatic loss in potency

Compound: Cc1ccc(/C=C/c2nnc(-c3ccccn3)n2Cc2ccco2)cc1C(F)(F)F [5d, (E)-2-(4-(Furan-2-ylmethyl)-5-(4-methyl-3-(trifluoromethyl)styryl)-4H-1,2,4-triazol-3-yl)pyridine]
KOR agonist activity (GTPγS) in words [1]: dramatic loss in potency

Compound: FC(Cc1ccccc1)c1nnc(-c2ccccn2)n1Cc1ccco1 (centres unmarked) [5g, 2-(5-(1-Fluoro-2-phenylethyl)-4-(furan-2-ylmethyl)-4H-1,2,4-triazol-3-yl)pyridine]
fold loss of potency compared to compound 4a [1]: 3 fold

Compound: c1ccc(-c2nnc(-c3ccccn3)n2Cc2cccs2)cc1 [5j, 2-(5-Phenyl-4-(thiophen-2-ylmethyl)-4H-1,2,4-triazol-3-yl)pyridine]
KOR agonist activity (GTPγS) in words [1]: loss of activity
